{
  "source": "patent US20230355500A1",
  "about": "“TOPICAL COMPOSITION” (LILIGER LTD, priority 2021, published 2023)",
  "key": {"stratum corneum": {"system": "stratum corneum", "conditions": "patients with atopic dermatitis, topical treatment; cited from earlier work"}, "skin": {"system": "skin", "assay": "Concentration needed for skin effect, judged by redness, swelling, tingling and burning sensation", "format": "in vivo, human", "method": "The concentration of the NO-donor in the topical composition of the present invention is determined by the amount that is sufficient to elevate the level of NO in the skin, upon topical application of the composition. Since measuring NO levels in humans is impractical, such elevation can be observed by the appearance of skin redness (erythema), swelling (oedema) a tingling sensation and a burning sensation, which is intensified as the concentration goes up. Furthermore, the occurrence of elevated NO can be noticed by its desirable cosmetic outcomes such as enhanced radiance and reduction of wrinkles.\nFor example, in the case of nitroglycerine, 2% is insufficient. At higher concentrations, from about 4%, a slight burning sensation is noticed. This sensation intensifies as the nitroglycerine concentration increases. Thus, in certain embodiments, the concentration of nitroglycerine as NO-donor is between about 4% - about 12%; and in other embodiments it can be from about 4%-8%, or from about 8%-12%.\nIn the case of arginine, 5% is insufficient. At higher concentrations, from about 6%, a slight burning sensation is noticed, and it is associated with a tingling sensation. This sensation intensifies as the arginine concentration increases. Thus, in certain embodiments, the concentration of arginine as NO-donor is at least about 6%. For example, between about 6% and about 25%. In other embodiments, the concentration of arginine can be from about 6% to about 8%, or from about 8% to about 10%, or from about 10% to about 14%, or from about 14% to about 18%, or from about 18% to about 25%, or from about 8% to about 25%, or from about 6% to about 12%, or from about 8% to about 12%, or from about 8% to about 10%.\nThe concentration of the counter-NO agent is determined so that the skin redness (erythema), swelling (oedema) and burning sensation, induced by the NO-donor is decreased or eliminated. For example, in certain cases, where the counter-NO agent is nicotinamide, 0.5% is insufficient. […]"}, "ageing skin": {"system": "ageing skin", "assay": "Treatment of ageing skin, study #2: day cream used for 28 days, unguided free-form feedback", "format": "in vivo, human", "conditions": "addition of nicotinamide to the arginine cream", "description": "Objectives: To determine the impact of Composition #1 on middle-aged women after 28 days of continuous use. […] They were asked to use the cream daily for 28 days and to provide unguided input (free form) Results: 13 of the 20 women provided feedback that was summarized in the table below."}},
  "data": [
    {"compound": "Cl.N=C(N)NCCC[C@H](N)C(=O)O", "note": "[arginine hydrochloride]", "values": [
      {"measurement": "Clinical symptoms of dry skin", "setting": "stratum corneum", "result": "improvement"},
      {"measurement": "Skin moisture", "setting": "stratum corneum", "result": "increase"},
      {"measurement": "Urea in the stratum corneum", "setting": "stratum corneum", "result": "significantly increase"}
    ]},
    {"compound": "N=C(N)NCCC[C@H](N)C(=O)O", "note": "[arginine, L-arginine]", "values": [
      {"measurement": "Sufficiency of the concentration as NO-donor", "setting": "skin; 5% in the topical composition", "result": "insufficient"},
      {"measurement": "Concentration from which a slight burning sensation is noticed", "setting": "skin; human, in vivo", "result": "at least 6%"}
    ]},
    {"compound": "NC(=O)c1cccnc1", "note": "[nicotinamide]", "values": [
      {"measurement": "Previous issues (Study #1) of burning sensation and over-tingling", "setting": "ageing skin", "result": "solved"},
      {"measurement": "Sufficiency of the concentration as counter-NO agent (to decrease redness, swelling and burning sensation)", "setting": "skin; 0.5% in the topical composition, in certain cases", "result": "insufficient"}
    ]}
  ]
}
